In patent US20070142401A1, “Indolyl-pyrroledione derivatives for the treatment of neurological and vascular disorders related to beta-amyloid generation and/or aggregation” (NOVARTIS AG, priority 2003, published 2007):

What was measured:
Flt-1 = Flt-1 (Homo sapiens, UniProt P17948); experiment: cell-free enzyme assay Flt-1; format: biochemical
PKC beta = PKC beta (Homo sapiens, UniProt P05771); experiment: cell-free enzyme assay PKC beta; format: biochemical
PKC alpha = PKC alpha (Homo sapiens, UniProt P17252); experiment: cell-free enzyme assay PKC alpha; format: biochemical
[1] = tested on: Aβ secretion in HEK/APPswe cells; experiment: Aβ secretion in HEK/APPswe cell culture medium (sandwich ELISA); format: cell-based; conditions: HEK/APPswe cell cultures, 24 hours after compound addition
Experimental: HEK/APPswe cells are plated in microtiter plates precoated with 10 μg/ml poly-D-lysine at 12′000 cells/well in 100 μl/well DMEM medium supplemented with 10% FCS, 0.25 mg/ml G418 sulfate, 1% penicillin streptomycin. The following day, supernatant is replaced with 90 μl/well of fresh medium and 10 μl/well of compound diluted in culture medium are added. Two types of control wells are used: cell culture medium without cells plus 10 μl/well of all compound dilutions (background signals) and cell culture medium from untreated cells (positive control). 24 hours later after compound addition, conditioned medium is collected and Aβ levels determined by a specific sandwich ELISA.
For the sandwich ELISA, the maxisorp microtiterplates are coated overnight at 4° C. with 100 μl/well of the monoclonal antibody 25H 10 diluted 1:1000 in PB for Aβ40 detection or monoclonal antibody B10E7 diluted 1:2750 for detection of Aβ42. […] After 1 hour incubation at room temperature wells are washed as described above and alkaline phosphatase activity is determined by adding 100 μl/well of diethanolamine buffer, pH 9.8 (100 mM diethanolamine, 1 mM MgCl2, pH adjusted to 9.8 with 2 M HCl) containing the chemiluminescent CSPD substrate (25 mM stock solution diluted 1:416) and the enhancer Emerald II (diluted 1:10). […] Samples are measured in triplicate. […]

Flt-3 = target: T1, Flt-3 (Homo sapiens, UniProt P36888); experiment: cell-free enzyme assay Flt-3; format: biochemical
T1 sequence (P36888 27-993): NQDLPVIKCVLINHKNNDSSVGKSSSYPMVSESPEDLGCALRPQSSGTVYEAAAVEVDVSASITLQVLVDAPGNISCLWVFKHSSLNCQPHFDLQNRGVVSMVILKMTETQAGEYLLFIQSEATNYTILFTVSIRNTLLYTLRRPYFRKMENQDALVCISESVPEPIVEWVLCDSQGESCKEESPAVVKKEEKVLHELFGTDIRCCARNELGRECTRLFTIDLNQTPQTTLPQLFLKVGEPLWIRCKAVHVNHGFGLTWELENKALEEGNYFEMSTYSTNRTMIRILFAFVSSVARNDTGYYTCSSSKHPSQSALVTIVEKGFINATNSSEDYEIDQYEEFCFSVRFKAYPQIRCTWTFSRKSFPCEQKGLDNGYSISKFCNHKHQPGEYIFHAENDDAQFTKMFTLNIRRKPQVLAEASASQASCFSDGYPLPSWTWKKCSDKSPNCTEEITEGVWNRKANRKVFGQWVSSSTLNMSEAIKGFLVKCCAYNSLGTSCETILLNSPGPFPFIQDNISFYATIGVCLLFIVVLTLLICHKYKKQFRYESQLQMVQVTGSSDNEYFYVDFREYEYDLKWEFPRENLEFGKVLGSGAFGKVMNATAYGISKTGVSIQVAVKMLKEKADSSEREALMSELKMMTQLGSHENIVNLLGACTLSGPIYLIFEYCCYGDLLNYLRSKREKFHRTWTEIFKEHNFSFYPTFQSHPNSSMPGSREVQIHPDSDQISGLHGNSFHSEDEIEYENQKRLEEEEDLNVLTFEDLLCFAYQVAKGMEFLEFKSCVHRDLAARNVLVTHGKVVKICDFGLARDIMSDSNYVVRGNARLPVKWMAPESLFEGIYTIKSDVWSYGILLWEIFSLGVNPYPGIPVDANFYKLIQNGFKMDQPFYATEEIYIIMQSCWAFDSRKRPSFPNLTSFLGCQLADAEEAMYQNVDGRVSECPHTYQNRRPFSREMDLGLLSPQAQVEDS

HEK/APPswe cells = experiment: MTS assay (cytotoxicity); format: cell-based; conditions: at concentrations below 1 microM
Experimental: To determine cytotoxicity, cells are tested by the MTS colorimetric kit performed essentially according to the manufacturer's specifications (Promega, #G5430X). After collecting the conditioned medium for the sandwich ELISA, the rest of the conditioned medium is removed completely and replaced with 100 μl/well culture medium containing one fifth of MTS solution prepared as recommended in the kit. After 3 hours incubation at 37° C., absorbance is read at an OD of 490 nm with a reference wavelength set to 630 nm. Values are given as % metabolic rate (n=6). The 0% value is calculated from wells which had no cells, 100% from wells with an untreated cell layer

CDK-1 = CDK-1 (Homo sapiens, UniProt P06493); experiment: cell-free enzyme assay CDK-1; format: biochemical
CDK-1, sequence (P06493 whole entry, species assumed): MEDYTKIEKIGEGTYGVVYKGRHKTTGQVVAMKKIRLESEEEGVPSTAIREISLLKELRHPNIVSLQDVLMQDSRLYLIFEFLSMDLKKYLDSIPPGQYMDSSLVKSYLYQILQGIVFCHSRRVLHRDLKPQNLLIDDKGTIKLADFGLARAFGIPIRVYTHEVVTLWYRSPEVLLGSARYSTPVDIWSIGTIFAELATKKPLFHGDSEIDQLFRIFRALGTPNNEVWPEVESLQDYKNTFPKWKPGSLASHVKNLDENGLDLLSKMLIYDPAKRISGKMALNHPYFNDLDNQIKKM
CDK-1, sequence (P14635 whole entry partner, species assumed): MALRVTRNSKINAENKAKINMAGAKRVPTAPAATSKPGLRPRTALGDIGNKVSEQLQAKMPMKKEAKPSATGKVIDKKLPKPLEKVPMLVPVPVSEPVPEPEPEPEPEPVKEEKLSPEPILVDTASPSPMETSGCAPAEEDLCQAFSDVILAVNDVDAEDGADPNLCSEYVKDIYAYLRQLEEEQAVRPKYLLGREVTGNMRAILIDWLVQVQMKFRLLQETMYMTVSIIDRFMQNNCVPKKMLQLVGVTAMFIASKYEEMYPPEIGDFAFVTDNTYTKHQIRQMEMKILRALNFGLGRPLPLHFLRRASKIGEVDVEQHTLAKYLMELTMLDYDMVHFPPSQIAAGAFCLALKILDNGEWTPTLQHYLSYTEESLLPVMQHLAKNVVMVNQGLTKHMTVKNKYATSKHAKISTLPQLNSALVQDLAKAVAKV

PKC theta = PKC theta (Homo sapiens, UniProt Q04759); experiment: cell-free enzyme assay PKC theta; format: biochemical
PKC theta, sequence (Q04759 whole entry): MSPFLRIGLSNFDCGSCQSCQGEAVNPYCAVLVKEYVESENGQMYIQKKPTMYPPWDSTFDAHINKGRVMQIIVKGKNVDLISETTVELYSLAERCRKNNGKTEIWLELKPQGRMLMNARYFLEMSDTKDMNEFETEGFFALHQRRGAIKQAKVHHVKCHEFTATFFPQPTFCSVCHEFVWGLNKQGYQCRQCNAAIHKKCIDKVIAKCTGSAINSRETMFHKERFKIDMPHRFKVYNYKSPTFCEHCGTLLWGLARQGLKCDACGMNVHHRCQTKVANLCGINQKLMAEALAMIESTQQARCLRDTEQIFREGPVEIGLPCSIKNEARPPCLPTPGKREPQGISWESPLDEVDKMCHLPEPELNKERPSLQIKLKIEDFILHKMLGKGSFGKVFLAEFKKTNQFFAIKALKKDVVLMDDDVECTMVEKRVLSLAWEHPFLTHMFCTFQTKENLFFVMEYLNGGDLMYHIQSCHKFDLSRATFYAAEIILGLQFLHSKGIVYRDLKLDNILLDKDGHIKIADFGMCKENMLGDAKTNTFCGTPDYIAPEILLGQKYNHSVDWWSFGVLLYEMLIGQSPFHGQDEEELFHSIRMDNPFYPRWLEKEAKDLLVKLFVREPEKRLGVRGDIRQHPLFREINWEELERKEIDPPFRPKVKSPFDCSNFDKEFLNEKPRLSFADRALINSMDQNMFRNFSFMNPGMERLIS

Flt-4 = Flt-4 (Homo sapiens, UniProt P35916); experiment: cell-free enzyme assay Flt-4; format: biochemical
Flt-4, sequence (P35916 25-1363, species assumed): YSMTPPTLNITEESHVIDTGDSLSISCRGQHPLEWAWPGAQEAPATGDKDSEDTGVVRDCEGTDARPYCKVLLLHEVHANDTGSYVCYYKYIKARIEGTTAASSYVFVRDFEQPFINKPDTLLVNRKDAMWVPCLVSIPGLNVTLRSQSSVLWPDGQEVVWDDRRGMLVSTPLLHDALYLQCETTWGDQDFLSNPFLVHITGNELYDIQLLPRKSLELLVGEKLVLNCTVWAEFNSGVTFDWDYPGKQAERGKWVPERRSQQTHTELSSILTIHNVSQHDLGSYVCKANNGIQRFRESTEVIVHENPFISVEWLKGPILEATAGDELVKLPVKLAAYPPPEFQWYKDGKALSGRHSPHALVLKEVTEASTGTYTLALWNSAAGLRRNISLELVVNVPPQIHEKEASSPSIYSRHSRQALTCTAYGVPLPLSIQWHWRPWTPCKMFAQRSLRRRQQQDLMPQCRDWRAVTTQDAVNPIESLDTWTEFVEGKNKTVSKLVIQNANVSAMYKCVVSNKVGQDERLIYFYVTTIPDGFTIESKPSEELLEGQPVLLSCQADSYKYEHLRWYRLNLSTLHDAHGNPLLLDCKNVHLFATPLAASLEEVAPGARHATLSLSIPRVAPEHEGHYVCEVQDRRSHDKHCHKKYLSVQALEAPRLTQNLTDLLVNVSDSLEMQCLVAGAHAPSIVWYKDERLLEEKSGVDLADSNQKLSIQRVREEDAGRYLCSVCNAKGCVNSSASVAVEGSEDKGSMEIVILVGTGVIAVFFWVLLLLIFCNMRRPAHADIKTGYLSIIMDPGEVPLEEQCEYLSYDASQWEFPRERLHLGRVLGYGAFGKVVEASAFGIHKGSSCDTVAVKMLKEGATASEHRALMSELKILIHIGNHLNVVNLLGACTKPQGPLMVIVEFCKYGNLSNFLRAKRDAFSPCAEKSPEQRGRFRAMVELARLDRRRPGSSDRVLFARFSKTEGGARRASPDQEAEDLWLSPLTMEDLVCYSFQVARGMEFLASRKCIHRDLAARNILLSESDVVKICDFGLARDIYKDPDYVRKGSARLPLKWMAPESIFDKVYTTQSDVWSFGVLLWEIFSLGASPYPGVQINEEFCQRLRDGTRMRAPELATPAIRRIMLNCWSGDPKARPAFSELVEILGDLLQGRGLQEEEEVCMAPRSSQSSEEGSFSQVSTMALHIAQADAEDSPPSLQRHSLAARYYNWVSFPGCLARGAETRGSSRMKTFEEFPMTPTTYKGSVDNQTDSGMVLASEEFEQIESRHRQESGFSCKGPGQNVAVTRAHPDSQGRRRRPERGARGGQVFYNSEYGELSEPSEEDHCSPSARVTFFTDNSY

PKC gamma = PKC gamma (Homo sapiens, UniProt P05129); experiment: cell-free enzyme assay PKC gamma; format: biochemical
Flt-2 = Flt-2 (Homo sapiens, UniProt P11362); experiment: cell-free enzyme assay Flt-2; format: biochemical
PKC epsilon = target: T2, PKC epsilon (Homo sapiens, UniProt Q02156); experiment: cell-free enzyme assay PKC epsilon; format: biochemical
T2 sequence (Q02156 1-737): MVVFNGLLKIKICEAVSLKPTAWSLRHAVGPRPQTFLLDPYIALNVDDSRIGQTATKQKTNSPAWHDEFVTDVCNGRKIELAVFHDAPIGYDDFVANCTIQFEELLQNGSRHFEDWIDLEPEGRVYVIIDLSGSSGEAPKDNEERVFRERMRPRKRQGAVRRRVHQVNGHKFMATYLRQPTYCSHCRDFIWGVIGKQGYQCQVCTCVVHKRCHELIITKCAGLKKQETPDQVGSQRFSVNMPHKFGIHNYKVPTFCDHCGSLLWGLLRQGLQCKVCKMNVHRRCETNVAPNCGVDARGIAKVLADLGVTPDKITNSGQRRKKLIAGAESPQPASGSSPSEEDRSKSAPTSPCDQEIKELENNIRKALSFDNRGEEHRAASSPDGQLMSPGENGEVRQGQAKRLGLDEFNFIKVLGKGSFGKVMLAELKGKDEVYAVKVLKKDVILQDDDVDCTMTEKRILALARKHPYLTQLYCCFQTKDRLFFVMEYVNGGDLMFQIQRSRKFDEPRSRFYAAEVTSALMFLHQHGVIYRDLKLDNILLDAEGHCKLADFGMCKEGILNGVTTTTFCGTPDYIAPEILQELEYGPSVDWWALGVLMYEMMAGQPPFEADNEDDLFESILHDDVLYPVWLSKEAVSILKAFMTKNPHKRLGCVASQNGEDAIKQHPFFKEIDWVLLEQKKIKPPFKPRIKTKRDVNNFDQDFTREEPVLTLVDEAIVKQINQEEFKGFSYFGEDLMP

KDR = KDR (Homo sapiens, UniProt P35968); experiment: cell-free enzyme assay KDR; format: biochemical

Flt-1, sequence (P17948 27-1338, species assumed): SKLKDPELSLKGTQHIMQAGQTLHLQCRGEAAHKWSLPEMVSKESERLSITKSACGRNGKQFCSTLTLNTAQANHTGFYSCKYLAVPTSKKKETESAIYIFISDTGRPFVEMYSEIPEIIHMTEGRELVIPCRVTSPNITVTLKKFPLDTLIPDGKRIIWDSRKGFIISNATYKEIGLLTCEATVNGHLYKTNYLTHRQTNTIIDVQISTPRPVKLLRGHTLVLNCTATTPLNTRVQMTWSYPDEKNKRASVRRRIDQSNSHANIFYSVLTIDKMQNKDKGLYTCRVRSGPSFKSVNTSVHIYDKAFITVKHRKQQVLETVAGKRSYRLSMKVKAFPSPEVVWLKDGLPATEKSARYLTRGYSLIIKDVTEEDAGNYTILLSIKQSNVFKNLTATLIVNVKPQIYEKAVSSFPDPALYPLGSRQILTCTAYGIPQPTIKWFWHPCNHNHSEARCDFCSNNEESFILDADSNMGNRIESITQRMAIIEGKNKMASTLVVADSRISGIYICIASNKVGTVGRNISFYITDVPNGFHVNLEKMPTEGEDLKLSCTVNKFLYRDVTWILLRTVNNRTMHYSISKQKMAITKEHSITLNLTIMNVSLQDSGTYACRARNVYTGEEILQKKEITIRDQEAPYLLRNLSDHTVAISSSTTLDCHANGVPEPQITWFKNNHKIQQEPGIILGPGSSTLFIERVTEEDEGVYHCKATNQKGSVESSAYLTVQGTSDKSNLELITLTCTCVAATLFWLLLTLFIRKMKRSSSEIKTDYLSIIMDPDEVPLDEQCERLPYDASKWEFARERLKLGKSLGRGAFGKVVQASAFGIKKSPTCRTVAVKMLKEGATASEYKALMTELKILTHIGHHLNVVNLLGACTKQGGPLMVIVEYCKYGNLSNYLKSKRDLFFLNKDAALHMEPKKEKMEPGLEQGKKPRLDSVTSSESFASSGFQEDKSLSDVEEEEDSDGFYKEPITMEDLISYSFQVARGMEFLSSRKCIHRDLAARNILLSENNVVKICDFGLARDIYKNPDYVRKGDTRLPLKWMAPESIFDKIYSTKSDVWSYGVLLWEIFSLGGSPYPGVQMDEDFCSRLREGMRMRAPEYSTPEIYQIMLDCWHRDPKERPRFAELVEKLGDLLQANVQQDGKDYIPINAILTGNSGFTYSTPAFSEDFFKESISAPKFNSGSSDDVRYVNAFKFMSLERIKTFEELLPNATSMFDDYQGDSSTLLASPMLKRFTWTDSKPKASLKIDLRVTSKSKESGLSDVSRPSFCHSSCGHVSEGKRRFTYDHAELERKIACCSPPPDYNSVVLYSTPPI
PKC beta, sequence (P05771 whole entry, species assumed): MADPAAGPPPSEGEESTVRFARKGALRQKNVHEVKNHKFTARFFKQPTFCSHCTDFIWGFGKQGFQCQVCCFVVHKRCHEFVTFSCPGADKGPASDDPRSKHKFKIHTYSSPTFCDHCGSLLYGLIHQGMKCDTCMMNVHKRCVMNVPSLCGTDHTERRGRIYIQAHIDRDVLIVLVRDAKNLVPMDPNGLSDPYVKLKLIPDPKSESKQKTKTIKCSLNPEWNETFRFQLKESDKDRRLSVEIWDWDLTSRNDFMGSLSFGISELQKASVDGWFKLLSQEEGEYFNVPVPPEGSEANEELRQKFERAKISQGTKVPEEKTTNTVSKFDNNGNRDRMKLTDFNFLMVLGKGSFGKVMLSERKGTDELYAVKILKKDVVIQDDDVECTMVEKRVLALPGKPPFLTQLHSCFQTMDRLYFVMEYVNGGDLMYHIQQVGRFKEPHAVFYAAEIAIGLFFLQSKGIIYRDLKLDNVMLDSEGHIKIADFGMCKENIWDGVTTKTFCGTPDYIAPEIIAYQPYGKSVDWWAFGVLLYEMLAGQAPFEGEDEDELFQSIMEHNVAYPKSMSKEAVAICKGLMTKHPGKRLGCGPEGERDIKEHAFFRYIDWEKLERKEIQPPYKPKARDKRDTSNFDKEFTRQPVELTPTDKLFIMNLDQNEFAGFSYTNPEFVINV

- activity in cell-free enzyme assay, Flt-1 (Flt-1): <10 µM
- activity in cell-free enzyme assay, PKC beta (PKC beta): 30 nM
- activity in cell-free enzyme assay, PKC alpha (PKC alpha): 21 nM
- activity in cell-free enzyme assay, Flt-3 (Flt-3): <10 µM
- activity in cell-free enzyme assay, CDK-1 (CDK-1): <10 µM
- activity in cell-free enzyme assay, PKC theta (PKC theta): 186 nM
- activity in cell-free enzyme assay, Flt-4 (Flt-4): <10 µM
- activity in cell-free enzyme assay, PKC gamma (PKC gamma): <500 nM
- activity in cell-free enzyme assay, Flt-2 (Flt-2): <10 µM
- activity in cell-free enzyme assay, PKC epsilon (PKC epsilon): 514 nM
- activity in cell-free enzyme assay, KDR (KDR): <10 µM
Structure (SMILES): CN1CCN(c2cc(C3=C(c4c[nH]c5ccccc45)C(=O)NC3=O)c(Cl)c(C(F)(F)F)c2)CC1 [Example 2, 3-[2-Chloro-5-(4-methyl-piperazin-1-yl)-3-trifluoromethyl-phenyl]-4-(1H-indol-3-yl)-pyrrole-2,5-dione]
- concentration giving a clear reduction of Aβ secretion in the medium [1]: below 1 microM
- effect on cellular viability (HEK/APPswe cells): without having any effect on cellular viability
